Here are results for two compounds from patent publication EP1119551B1, “NAPHTHALENECARBOXAMIDES AS TACHYKININ RECEPTOR ANTAGONISTS” (AstraZeneca AB, priority 1998, dated 2000).

Experiment [1] addresses NK1 receptor (Oryctolagus cuniculus, UniProt G1SEI7). The experiment is described as follows: Rabbit Pulmonary Artery: NK1 in vitro functional assay (Test C). It counts as cell-based. The following applies: antagonism of agonist ASMSP, -log molar apparent dissociation constant KB. The method, then:
Rabbit Pulmonary Artery: NK1 in vitro functional assay (Test C) […] Male New Zealand white rabbits are euthanized via i.v. injection into the ear vein with 60 mg/kg Nembutal (50 mg/mL). Preceding the Nembutal into the vein is Heparin (1000 units/mL) at 0.0025 mL/kg for anticoagulant purposes. The chest cavity is opened from the top of the rib cage to the sternum and the heart, lungs and part of the trachea are removed. The pulmonary arteries are isolated from the rest of the tissues and cut in half to serve as pairs. […] Responses are measured on a Grass polygraph via Grass FT-03 transducers. […] Percent inhibition is determined when a tested compound produces a statistically significant (p < 0.05) reduction of the total relaxation which is calculated using the total relaxation of the Papaverine as 100%. Potencies of the compounds are determined by calculating the apparent dissociation constants (KB) for each concentration tested using the standard equation: KB= [antagonist]/ (dose ratio - 1) [formula] where dose ratio = antilog[(agonist -log molar EC50 without compound) - (-log molar EC50 with compound)]. The KB values may be converted to the negative logarithms and expressed as -log molar KB (i.e. pKB). […] The EC50 values are converted to negative logarithms and expressed as -log molar EC50.

Experiment [2] has as its target T1, NK2 receptor (Oryctolagus cuniculus, UniProt P79218).
T1 construct: The pulmonary arteries are isolated from the rest of the tissues, then rubbed over an intimal surface to remove the endothelium; from tissue; host or cells: rabbit pulmonary artery rings (endothelium removed)
T1 sequence (P79218 1-384): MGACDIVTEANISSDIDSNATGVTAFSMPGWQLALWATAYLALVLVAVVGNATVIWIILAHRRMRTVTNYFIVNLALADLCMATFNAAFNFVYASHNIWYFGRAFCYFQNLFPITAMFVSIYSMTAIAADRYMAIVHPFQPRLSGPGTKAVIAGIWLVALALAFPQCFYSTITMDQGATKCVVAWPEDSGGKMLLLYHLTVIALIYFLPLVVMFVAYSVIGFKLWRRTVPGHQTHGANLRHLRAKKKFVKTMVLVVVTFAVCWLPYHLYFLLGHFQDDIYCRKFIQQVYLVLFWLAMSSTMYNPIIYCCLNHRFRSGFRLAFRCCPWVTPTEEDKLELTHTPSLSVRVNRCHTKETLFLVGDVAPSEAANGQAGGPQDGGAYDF
As to the kind of experiment: Rabbit Pulmonary Artery: NK2 in vitro functional assay (Test D). In kind it is cell-based. The following applies: antagonism of agonist BANK, -log molar apparent dissociation constant KB, read-out: NK2 pKb (Test D) (converted).
Experimental: The ability of a compound of the invention to antagonize the action of the agonist [β-ala8] […] Male New Zealand white rabbits are euthanized via i.v. injection into the ear vein with 60 mg/kg Nembutal (50 mg/mL). Preceding the Nembutal into the vein is Heparin (1000 units/mL) at 0.0025 mL/kg for anticoagulant purposes. The chest cavity is opened from the top of the rib cage to the sternum and a small incision is made into the heart so that the left and right pulmonary arteries can be cannulated with polyethylene tubing (PE260 and PE190 respectively). […] Responses are measured on a Grass polygraph via Grass FT-03 transducers. […]
Percent inhibition is determined when a tested compound produces a statistically significant (p < 0.05) reduction of the total contraction which is calculated using the total contraction of the BaCl2 as 100%. Potencies of the compounds are determined by calculating the apparent dissociation constants (KB) for each concentration tested using the standard equation: KB = [antagonist]/ (dose ratio - 1) [formula] where dose ratio = antilog[(agonist -log molar EC50 without compound) - (-log molar EC50 with compound)]. The KB values may be converted to the negative logarithms and expressed as -log molar KB (i.e. pKB). […] The EC50 values are converted to negative logarithms and expressed as -log molar EC50.

Chain of NK1 receptor (G1SEI7 1-407): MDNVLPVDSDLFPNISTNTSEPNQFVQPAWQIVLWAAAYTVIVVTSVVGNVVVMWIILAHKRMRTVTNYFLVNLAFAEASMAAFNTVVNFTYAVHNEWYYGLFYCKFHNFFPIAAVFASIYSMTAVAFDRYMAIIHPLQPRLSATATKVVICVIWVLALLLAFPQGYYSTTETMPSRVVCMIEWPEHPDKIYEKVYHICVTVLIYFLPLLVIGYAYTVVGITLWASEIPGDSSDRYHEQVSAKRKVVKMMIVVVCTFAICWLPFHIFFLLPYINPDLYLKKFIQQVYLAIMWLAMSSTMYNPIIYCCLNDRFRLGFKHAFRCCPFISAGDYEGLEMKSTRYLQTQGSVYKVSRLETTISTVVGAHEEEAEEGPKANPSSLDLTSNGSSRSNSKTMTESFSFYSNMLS

For the compound `COc1c(C#N)cc2ccccc2c1C(=O)N(C)C[C@@H](CCN1CCC(c2ccccc2[S@+](C)[O-])CC1)c1ccc(Cl)c(Cl)c1.O=C(O)CC(O)(CC(=O)O)C(=O)O` [Example 1, N-[(S)-2-(3,4-Dichlorophenyl)-4-[4-[(S)-2-methylsulfinylphenyl]-1-piperidinyl]butyl]-N-methyl-2-methoxy-3-cyano-1-naphthamide citrate], the “NK1 pKb (Test C)” value in experiment [1] is 9.5. For the same compound, the Kb in experiment [2] was 50.1 nM.
Regarding `CCc1c(C#N)cc2ccccc2c1C(=O)N(C)C[C@@H](CCN1CCC(c2ccccc2[S@+](C)[O-])CC1)c1ccc(Cl)c(Cl)c1.O=C(O)CC(O)(CC(=O)O)C(=O)O` [Example 18, N-[(S)-2-(3,4-Dichlorophenyl)-4-[4-[(S)-2-methylsulfinylphenyl]-1-piperidinyl]butyl]-N-methyl-3-cyano-2-ethyl-1-naphthamide citrate], the “NK1 pKb (Test C)” value in experiment [1] was determined as 9.6. The Kb in experiment [2] was 50.1 nM.
